This is an account of results in article PMC10053865 (2023).

In assay [1] the test system is Cocaine aptamer (ITO-supported sensor) (DNA, aptamer) GACAAGGAAAATCCTTCAACGAAGTGGGTC
Put plainly: square-wave voltammetry (60 Hz), Hill fit. The conditions noted are these: 137 mM NaCl, 2.7 mM KCl; 1x PBS pH 7.4, 23 °C; apparent; procaine hydrochloride.

For assay [2], the system named is Cocaine aptamer (Au-supported sensor) (DNA, aptamer) GACAAGGAAAATCCTTCAACGAAGTGGGTC
Nature of the assay: square-wave voltammetry (80 Hz), Hill fit. The conditions noted are these: 137 mM NaCl, 2.7 mM KCl; 1x PBS pH 7.4, 23 °C; apparent; procaine hydrochloride.

For the compound `CCN(CC)CCOC(=O)c1ccc(N)cc1`, the KD-ITO in assay [1] is listed as 6.2 ± 0.6 mM. The KD-Au in assay [2] is given as 63.7 ± 9.3 mM.
